Measurements: patent US9657071B2, “IgE peptide vaccine” (NIPPON ZENYAKU KOGYO CO., LTD., priority 2012, dated 2017)

Columns and labels:
[1] = test system: anti-dog IgE monoclonal antibodies; assay: Epitope analysis of synthetic IgE CH3 region peptides by ELISA; type: binding; conditions: peptide immobilized 100 ng/well, ELISA with anti-IgE monoclonal antibodies
Description: Epitope analysis was conducted on mouse monoclonal antibodies binding to a dog IgE antibody and rat monoclonal antibodies binding to dog and mouse IgE antibodies. Mouse anti-dog IgE antibodies (clone name: CCH3-4, CCH5-5, CCH3-12, CCH3-13, CCH3-14, and CCH3-15) were prepared from mice immunized with the dog IgE CH3 (Cε3) region gene. Also, anti-IgE monoclonal antibodies (clone name: X-1, X-2, CCH3-21, and CCH3-22) were prepared from rats immunized with the dog and mouse IgE CH3 (Cε3) region genes. These antibodies were used as samples to synthesize synthetic peptides (SEQ ID NOs: 2 to 20 and 22 to 26) of the dog and mouse IgE peptide CH3 (Cε3) regions consisting of the sequences shown in FIG. 1-1. The epitope analysis was conducted by ELISA. […] The anti-dog IgE monoclonal antibodies that responded to the peptide were detected using secondary antibodies (anti-mouse IgG HRP (horseradish peroxidase)-labeled antibody for the anti-dog IgE antibodies prepared using mice, and anti-rat IgG HRP-labeled antibody for the anti-dog IgE antibodies prepared using rats).

[2] = test system: Dog subjected to P-K test; assay: Prausnitz-Kustner (P-K) test; type: in vivo; conditions: conclusion of P-K test
Description: The P-K test refers to a method for qualitatively evaluating antigen-specific IgE in test serum and employs additional antigen-unsensitized individuals. The test is summarized as follows:
1) Antigen-unsensitized animals are prepared as animals subjected to the P-K test.
2) Test serum or serum of a healthy animal (control) is intracutaneously administered to the animals subjected to the P-K test. When antigen-specific IgE is present in the test serum, the IgE binds to the surface of mast cells in the skins of the animals subjected to the P-K test within 48 hours after the administration.
3) 48 hours after the serum administration, an antigen solution is intracutaneously administered to the same sites as above. When antigen-specific IgE is present in the test serum, the antigen binds to the antigen-specific IgE bound with the surface of mast cells to form IgE cross-linking. This triggers the degranulation of the mast cells, resulting in flare confirmed in the skins.
The administration group and the non-administration group differed most largely in their serum Der f 2-specific IgE concentrations at day 77 (7 days after the second sensitization) when the effects of the test substance were thus confirmed to be maximized. […]

Sequence: QEKKTSVSASQWYTKHHNNATTSIT (listed as Mus musculus) [MOUSE CH3-4-17-11]
- epitope in IgE CH3 region peptide [1]: peptide of an epitope region
- effect of vaccine-induced IgG on binding of IgE to mast cells [2]: blocks the binding of the IgE to mast cells
